Data taken from patent publication US5434136A, “Treatment of motility disorders with a GNRH analog” (priority 1992, dated 1995).

Legend:
[1] = tested on: functional bowel disease (GMD, IIHVN, Roux-en-Y Syndrome); assay: Treatment of five patients with leuprolide acetate: symptoms; type: in vivo, human
Source text: Patients: Four of the five patients tested were women with functional bowel disease: two with gastrointestinal motor dysfunction (GMD), and two with idiopathic intestinal hollow visceral myopathy/neuropathy (IIHVN). The fifth patient had Roux-en-Y Syndrome. All patients had severe, incapacitating symptoms of abdominal pain, nausea, and intermittent vomiting. All had made frequent visits to emergency rooms, had seen many physicians, and undergone multiple tests and surgical procedures, and were unable to maintain their jobs or quality of life. They had been treated with many different drugs, including experimental drugs by protocol. They had difficulty in maintaining body weight, because their symptoms were worsened by eating. The symptoms of the two patients with GMD were abdominal pain located in the right upper quadrant and epigastrium, daily nausea, and intermittent vomiting exacerbated by eating and by the luteal phase of the menstrual cycle. The two patients with IIHVN had abdominal pain, nausea, and intermittent vomiting, and also had urinary tract involvement consisting of pain and a decrease in urination. The fifth patient had Roux-en-Y syndrome (defined as epigastric-to-right-upper-quadrant pain, nausea, and vomiting increased by eating) after surgical construction of a gastro-jejunal Roux-en-Y anastomosis. The mean duration of these symptoms was eight years (Table 1). All subjects had undergone extensive blood testing, several upper gastrointestinal x-ray series, barium enemas, esophagogastroduodenoscopy, endoscopic retrograde cholangiopancreatography, gastric emptying tests with radiolabeled meal, ultrasound of the abdomen, computerized axial tomography of the abdomen, and many other tests. The results of all tests were normal, except for prolonged gastric emptying in the patient with the Roux-en-Y Syndrome. Because of their intractable clinical problem, these patients were included in the test protocol with leuprolide acetate. Protocol: The symptoms of each patient were first assessed, and their tests evaluated. Each patient kept a daily symptom diary. Leuprolide acetate was obtained by prescription as Lupron (TAP pharmaceuticals, Abbott Labs, North Chicago, Ill.). One multi-use vial of Lupron comprised of […] Leuprolide Acetate. A daily dose of 0.5 mg ([…]) was self-administered by subcutaneous injection, for a period of three months. Each patient was examined at 0, 1 and 3 months of treatment. After the third month, leuprolide was continued as previously, and estrogen (0.625 mg orally) and calcium (1000 mg orally) were also administered. At the end of the sixth month, a two week withdrawal period from leuprolide acetate ensued. During this period a 10 mg oral dose of progesterone was given to pre-menopausal patients, to assess recurrence of symptoms and to induce menses. Post-menopausal women were not treated with progesterone during the two week withdrawal period. This procedure was then continued for an additional six months, with drug withdrawal and progesterone given every three months to induce a menstrual cycle. Serum estradiol, progesterone, FSH, and LH were quantitated by radioimmunoassay prior to the initiation of leuprolide treatment, and at three months post treatment initiation.

[2] = tested on: migrating motor complexes, jejunum; assay: Leuprolide acetate in ovariectomized female rats: migrating motor complexes; type: in vivo, ovariectomized female Wistar rats; conditions: for Migrating Motor Complexes, L-Fasted / Migrating Motor Complexes, L-Fed: ovariectomized
Experimental: Eleven female Wistar rats weighing between 175 and 250 g were each implanted with four bipolar Ag/AgCL electrodes (the preparation of which is described in: Mathias, Am. J. Physiology, 249:[…]-[…], 1981). The electrodes were sewn 5 cm from the Ligament of Trietz and 5 cm apart, onto the jejunal serosa. The number of migrating myoelectric complexes was recorded using a R-612 Dynograph (Sensor-Medics, Anaheim, Calif.). Rats were fasted for 36 hours prior to recording and feeding (no food, liberal water), and were housed in special cages to remove feces. After 36 hours of fasting, Migrating Motor Complexes (MMC) were recorded at a sensitivity of 0.2 mV/cm, 2.5 mm/sec paper speed, and a Time Constant of 1 for a duration of 2 to 4 hours. Immediately following the fasted recording session, the rats were fed 2 biscuits of Purina rat chow with simultaneous recording during feeding and continued for 4 hours. Female Wistar rats were ovariectomized and permitted to recover ten days. Bipolar Ag/AgCl electrodes were then implanted as described for example 4. Control MMC readings in the fasted and fed states were recorded prior to treatment with leuprolide acetate (Controls) as described in Example 4. Treatment with leuprolide acetate followed using doses in the range of 2 to 250 μg/100 g body weight. Fasted and fed recordings were obtained as described for Example 4.

end-stage scleroderma = assay: Treatment of end stage scleroderma with leuprolide acetate; type: in vivo, human; conditions: Patient 6, 0.5 mg daily s.c.
Experimental: Patient number 6 was in end-stage scleroderma. They had been bed-ridden for approximately eight months, unable to retain food after eating, and was being maintained on total parental hyperalimentation (TPN) to keep up body weight and fluid and electrolyte balance for five months. This patient was treated with 0.5 mg Leuprolide acetate daily, by subcutaneous injection according to the protocol of example 1.

irritable bowel syndrome = conditions: patient
Experimental: The patient, a patient suffering from irritable bowel syndrome presented symptoms of nausea, vomiting, abdominal pain, and altered bowel habits. This patient was treated with lupron, 2.0 mg/day by subcutaneous injection, for a period of six months. […] Nafarelin is a GnRH analog available from SYNTEX, which differs from the natural GnRH peptide in a D-Nal (2)^6 substitution. […] Nafarelin therapy was discontinued, and treatment with Danazol, a 17-ethyltestosterone derivative known to antagonize GnRH receptors at the level of the pituitary, was begun, at 200 mg four times daily, P.O., for a period of three months.

[3] = Patient 4 (IIHVN), 0.5 mg daily s.c.
[4] = Patient 5 (Roux-en-Y), 0.5 mg daily s.c.

CCNC(=O)[C@@H]1CCCN1C(=O)[C@H](CCCNC(=N)N)NC(=O)[C@H](CC(C)C)NC(=O)[C@@H](CC(C)C)NC(=O)[C@H](Cc1ccc(O)cc1)NC(=O)[C@H](CO)NC(=O)[C@H](Cc1c[nH]c2ccccc12)NC(=O)[C@H](Cc1c[nH]cn1)NC(=O)[C@@H]1CCC(=O)N1 [Leuprolide acetate, leuprolide acetate]
Constipation: after leuprolide acetate ([1]; Patient 1, 0.5 mg daily s.c.): Daily formed stools | Intermittent vomiting: after leuprolide acetate ([1]; Patient 1, 0.5 mg daily s.c.): Abolished | Nausea, daily: after leuprolide acetate ([1]; Patient 1, 0.5 mg daily s.c.): Decreased considerably | Pain, RUQ, epigastrium, BLQ: after leuprolide acetate ([1]; Patient 1, 0.5 mg daily s.c.): Abolished | Constipation, intermittent: after leuprolide acetate ([1]; Patient 2, 0.5 mg daily s.c.): Daily formed stools | Epigastric to RUQ pain: after leuprolide acetate ([1]; Patient 2, 0.5 mg daily s.c.): Abolished | Nausea, daily: after leuprolide acetate ([1]; Patient 2, 0.5 mg daily s.c.): Abolished | Bilateral lower quadrant pain: after leuprolide acetate ([1]; Patient 3 (IIHVN)): Abolished | Bowel and bladder function after therapy ([1]; Patient 3 (IIHVN)): normal bowel and bladder function | Epigastric to RUQ pain: after leuprolide acetate ([1]; Patient 3 (IIHVN)): Decreased considerably | Nausea and vomiting after therapy ([1]; Patient 3 (IIHVN)): subsided | Nausea, daily: after leuprolide acetate ([1]; Patient 3 (IIHVN)): Abolished | Obstipation: after leuprolide acetate ([1]; Patient 3 (IIHVN)): Daily formed stools | Pain on urination: after leuprolide acetate ([1]; Patient 3 (IIHVN)): Abolished | Remaining abdominal pain under therapy ([1]; Patient 3 (IIHVN)): mild and intermittent abdominal pain | Overall response ([1]; Patient 3 (IIHVN), total abdominal hysterectomy and bilateral salpingo-oophorectomy): responded dramatically | Overall outcome ([1]; Patient 4 (IIHVN)): symptom-free | Constipation after ovulation: after leuprolide acetate [1, 3]: Daily formed stools | Deep boring pain in lower abdomen and rectum: after leuprolide acetate [1, 3]: Abolished | Urinary difficulty after ovulation: after leuprolide acetate [1, 3]: normal urination | Urination frequency after leuprolide acetate [1, 3]: 4 to 6 day⁻¹ | Overall outcome ([1]; Patient 5 (Roux-en-Y)): symptom-free | Diarrhea: after leuprolide acetate [1, 4]: Daily formed stools | Epigastric to RUQ pain: after leuprolide acetate [1, 4]: Abolished | Intermittent vomiting: after leuprolide acetate [1, 4]: Abolished | Nausea, daily: after leuprolide acetate [1, 4]: Abolished | Worsened by eating: after leuprolide acetate [1, 4]: Abolished | Body weight gained ([1]; Patient 5 (Roux-en-Y), from 96 to 131 pounds): 35 pounds | Symptoms after leuprolide treatment was stopped and a progesterone challenge given ([1]; all subjects of Example 1, two week withdrawal): recurrent symptoms within three to five days | Debilitating symptoms of patients with Motility Disorders (conclusion of Example 1) ([1]; human, in vivo): successfully reduces or abolishes | Overall outcome after treatment ([1]; patients with GMD (Patients 1 and 2)): symptom-free | Dose required to overcome the reduction of MMC/hour in fed rats ([2]; ovariectomized female rats): 100 ug/100 g body weight | Migrating Motor Complexes, L-Fasted ([2]; 2 μg/100 g body weight, control 3.86 + 0.14, mean + SEM): 4.40 + 0.16 MMC/hour | Migrating Motor Complexes, L-Fed ([2]; 2 μg/100 g body weight, control 0): 0 MMC/hour | Migrating Motor Complexes, L-Fasted ([2]; 20 μg/100 g body weight, control 5.17 + 0.31, mean + SEM): 5.40 + 0.15 MMC/hour | Migrating Motor Complexes, L-Fed ([2]; 20 μg/100 g body weight, control 0): 0 MMC/hour | Migrating Motor Complexes, L-Fasted ([2]; 40 μg/100 g body weight, control 4.50 + 0.22, mean + SEM): 5.23 + 0.41 MMC/hour | Migrating Motor Complexes, L-Fed ([2]; 40 μg/100 g body weight, control 0.88 + 0.58): 0 MMC/hour | Migrating Motor Complexes, L-Fasted ([2]; 100 μg/100 g body weight, control 4.00 + 0.17, mean + SEM): 5.00 + 0.41 MMC/hour | Migrating Motor Complexes, L-Fed ([2]; 100 μg/100 g body weight, control 0, mean + SEM): 4.50 + 0.34 MMC/hour | Migrating Motor Complexes, L-Fasted ([2]; 250 μg/100 g body weight, control 4.50 + 0.22, mean + SEM): 4.50 + 0.29 MMC/hour | Migrating Motor Complexes, L-Fed ([2]; 250 μg/100 g body weight, control 0.88 + 0.58, mean + SEM): 5.00 + 0.58 MMC/hour | Eating and body weight at discharge (end-stage scleroderma): eating without difficulty, and had gained weight | Need for TPN feeding after five weeks of therapy (end-stage scleroderma): did not require the TPN feeding | Mobility after five weeks of therapy (end-stage scleroderma; bed-ridden before): able to move about actively | Blood levels of FSH and LH (irritable bowel syndrome; 2.0 mg/day s.c., six months (entry one)): effectively reduced their blood levels of FSH and LH | Symptoms of irritable bowel disease (irritable bowel syndrome; 2.0 mg/day s.c., six months (entry two)): effectively reduced the symptoms of their irritable bowel disease | Irritable bowel symptoms (irritable bowel syndrome; depot of 7.5 mg I.M. monthly with 100 mg testosterone depot I.M. monthly, after six months): controlled without side effects
